Data from ChEMBL document CHEMBL4385653, “Design, synthesis, biological evaluation of benzoyl amide derivatives containing nitrogen heterocyclic ring as potential VEGFR-2 inhibitors” (Bioorg Med Chem, 2019).

How the values were obtained:
[1] = system: HepG2; assay: Antiproliferative activity against human HepG2 cells assessed as inhibition of cell proliferation incubated for 48 hrs by MTT assay; format: functional, cell-based; conditions: HepG2, 48 h
[2] = biological target: Fibroblast growth factor receptor 1 (Homo sapiens, UniProt P11362); assay: Inhibition of bFGFR (unknown origin) incubated for 30 mins by enzyme immunoassay
Sequence of Fibroblast growth factor receptor 1 (P11362 whole entry): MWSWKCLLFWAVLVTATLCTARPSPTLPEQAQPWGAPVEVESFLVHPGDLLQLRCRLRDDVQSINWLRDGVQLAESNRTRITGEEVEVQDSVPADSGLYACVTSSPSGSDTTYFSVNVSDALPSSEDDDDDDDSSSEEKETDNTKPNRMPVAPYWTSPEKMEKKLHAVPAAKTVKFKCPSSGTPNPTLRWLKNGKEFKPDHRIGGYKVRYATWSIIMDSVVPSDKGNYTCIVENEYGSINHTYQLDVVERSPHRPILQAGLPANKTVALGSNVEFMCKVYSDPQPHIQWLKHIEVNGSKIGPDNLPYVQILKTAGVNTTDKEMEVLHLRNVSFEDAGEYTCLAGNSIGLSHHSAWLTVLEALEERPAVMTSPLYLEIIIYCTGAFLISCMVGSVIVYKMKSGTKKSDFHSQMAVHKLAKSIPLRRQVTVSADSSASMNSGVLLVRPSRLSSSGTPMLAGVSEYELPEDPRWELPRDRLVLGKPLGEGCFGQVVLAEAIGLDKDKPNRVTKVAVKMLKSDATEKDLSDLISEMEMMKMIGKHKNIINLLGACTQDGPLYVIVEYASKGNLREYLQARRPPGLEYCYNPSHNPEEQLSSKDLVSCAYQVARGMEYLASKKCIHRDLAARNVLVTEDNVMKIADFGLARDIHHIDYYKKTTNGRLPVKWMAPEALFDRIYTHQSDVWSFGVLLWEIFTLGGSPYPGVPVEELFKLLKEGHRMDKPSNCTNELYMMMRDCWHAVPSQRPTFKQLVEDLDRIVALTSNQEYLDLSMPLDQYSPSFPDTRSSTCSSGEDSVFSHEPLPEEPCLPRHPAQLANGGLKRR

[3] = Inhibition of PDGFR (unknown origin) incubated for 30 mins by enzyme immunoassay; design: species or system Homo sapiens
[4] = system: MCF7; assay: Antiproliferative activity against human MCF7 cells assessed as inhibition of cell proliferation incubated for 48 hrs by MTT assay; format: functional, cell-based; conditions: MCF7, 48 h
[5] = system: A549; assay: Antiproliferative activity against human A549 cells assessed as inhibition of cell proliferation incubated for 48 hrs by MTT assay; format: functional, cell-based; conditions: A549, 48 h
[6] = system: HeLa; assay: Antiproliferative activity against human HeLa cells assessed as inhibition of cell proliferation incubated for 48 hrs by MTT assay; format: functional, cell-based
[7] = biological target: Vascular endothelial growth factor receptor 2 (Homo sapiens, UniProt P35968); assay: Inhibition of VEGFR2 (unknown origin) incubated for 30 mins by enzyme immunoassay
Sequence of Vascular endothelial growth factor receptor 2 (P35968 whole entry): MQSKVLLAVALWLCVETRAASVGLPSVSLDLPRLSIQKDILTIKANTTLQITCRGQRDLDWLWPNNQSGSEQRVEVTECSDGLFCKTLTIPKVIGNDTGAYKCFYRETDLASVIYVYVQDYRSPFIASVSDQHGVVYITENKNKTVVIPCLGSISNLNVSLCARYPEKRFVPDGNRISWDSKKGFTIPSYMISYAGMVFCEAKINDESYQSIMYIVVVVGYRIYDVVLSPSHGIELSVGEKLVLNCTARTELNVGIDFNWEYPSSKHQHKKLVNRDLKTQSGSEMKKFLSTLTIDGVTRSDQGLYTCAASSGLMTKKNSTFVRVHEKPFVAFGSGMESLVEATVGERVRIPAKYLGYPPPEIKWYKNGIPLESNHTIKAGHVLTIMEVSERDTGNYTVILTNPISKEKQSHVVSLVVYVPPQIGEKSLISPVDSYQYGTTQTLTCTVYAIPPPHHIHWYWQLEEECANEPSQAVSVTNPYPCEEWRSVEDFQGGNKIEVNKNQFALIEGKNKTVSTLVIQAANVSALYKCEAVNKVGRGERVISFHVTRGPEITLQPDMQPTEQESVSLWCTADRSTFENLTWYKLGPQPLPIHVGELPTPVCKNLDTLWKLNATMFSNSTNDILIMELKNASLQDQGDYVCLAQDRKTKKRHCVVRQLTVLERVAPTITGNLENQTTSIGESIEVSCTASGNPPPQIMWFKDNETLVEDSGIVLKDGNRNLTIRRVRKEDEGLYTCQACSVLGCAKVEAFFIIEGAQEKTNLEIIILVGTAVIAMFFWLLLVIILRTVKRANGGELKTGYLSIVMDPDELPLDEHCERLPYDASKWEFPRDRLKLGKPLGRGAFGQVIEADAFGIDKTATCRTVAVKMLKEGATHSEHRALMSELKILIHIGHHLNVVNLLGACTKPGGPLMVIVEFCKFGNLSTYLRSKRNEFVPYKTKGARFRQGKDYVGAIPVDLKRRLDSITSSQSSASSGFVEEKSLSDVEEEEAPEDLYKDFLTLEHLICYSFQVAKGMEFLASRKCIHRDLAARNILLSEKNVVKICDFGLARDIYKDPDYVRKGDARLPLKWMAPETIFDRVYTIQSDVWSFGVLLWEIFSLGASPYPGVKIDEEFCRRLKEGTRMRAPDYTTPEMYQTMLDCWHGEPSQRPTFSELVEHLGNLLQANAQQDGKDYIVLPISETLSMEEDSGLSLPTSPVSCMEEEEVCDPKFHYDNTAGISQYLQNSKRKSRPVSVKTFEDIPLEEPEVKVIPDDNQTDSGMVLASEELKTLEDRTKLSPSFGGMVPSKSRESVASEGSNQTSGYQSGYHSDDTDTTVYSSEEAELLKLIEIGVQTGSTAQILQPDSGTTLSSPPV

[8] = biological target: Epidermal growth factor receptor (Homo sapiens, UniProt P00533); assay: Inhibition of EGFR (unknown origin) incubated for 30 mins by enzyme immunoassay
Sequence of Epidermal growth factor receptor (P00533 whole entry): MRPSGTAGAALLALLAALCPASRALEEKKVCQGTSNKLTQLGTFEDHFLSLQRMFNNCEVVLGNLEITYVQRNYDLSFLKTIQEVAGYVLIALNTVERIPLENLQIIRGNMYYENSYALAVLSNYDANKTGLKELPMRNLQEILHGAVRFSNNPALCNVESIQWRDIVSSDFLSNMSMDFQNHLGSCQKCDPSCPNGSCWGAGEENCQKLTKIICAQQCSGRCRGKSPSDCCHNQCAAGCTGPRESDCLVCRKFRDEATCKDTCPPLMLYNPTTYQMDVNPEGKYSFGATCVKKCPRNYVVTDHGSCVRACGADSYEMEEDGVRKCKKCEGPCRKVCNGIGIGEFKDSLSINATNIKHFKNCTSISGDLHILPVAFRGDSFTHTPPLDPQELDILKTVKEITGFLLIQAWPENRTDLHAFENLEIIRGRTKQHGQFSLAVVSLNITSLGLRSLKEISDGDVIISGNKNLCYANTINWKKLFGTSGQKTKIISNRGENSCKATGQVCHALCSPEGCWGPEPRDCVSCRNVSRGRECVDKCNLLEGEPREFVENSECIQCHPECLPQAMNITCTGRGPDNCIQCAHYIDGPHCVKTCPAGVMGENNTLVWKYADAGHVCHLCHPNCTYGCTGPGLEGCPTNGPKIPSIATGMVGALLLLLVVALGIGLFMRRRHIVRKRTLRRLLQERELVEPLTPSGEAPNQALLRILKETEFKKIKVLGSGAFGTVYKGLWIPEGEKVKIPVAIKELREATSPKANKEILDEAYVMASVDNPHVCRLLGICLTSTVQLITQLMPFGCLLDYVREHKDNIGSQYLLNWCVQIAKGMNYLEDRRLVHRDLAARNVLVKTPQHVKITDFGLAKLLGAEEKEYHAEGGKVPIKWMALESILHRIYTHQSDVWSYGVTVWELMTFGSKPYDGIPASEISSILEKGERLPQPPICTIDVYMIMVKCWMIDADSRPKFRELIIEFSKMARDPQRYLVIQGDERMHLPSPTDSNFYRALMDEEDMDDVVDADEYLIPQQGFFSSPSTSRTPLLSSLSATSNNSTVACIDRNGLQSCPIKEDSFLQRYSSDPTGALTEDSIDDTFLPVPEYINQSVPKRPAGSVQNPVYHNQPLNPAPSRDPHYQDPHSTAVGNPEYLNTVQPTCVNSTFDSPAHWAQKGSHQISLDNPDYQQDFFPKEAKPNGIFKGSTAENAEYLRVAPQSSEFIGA

[9] = Cytotoxicity in HEK293T cells assessed as reduction in cell viability incubated for 48 hrs by MTT assay; format: cell-based, HEK-293T; conditions: human

| IC50 [1] [µM] | IC50 [2] [µM] | IC50 [3] [µM] | IC50 [4] [µM] | IC50 [5] [µM] | IC50 [6] [µM] | IC50 [7] [µM] | IC50 [8] [µM] | Compound | CC50 at 48 h [9] [µM] |
| --- | --- | --- | --- | --- | --- | --- | --- | --- | --- |
| 82.7 | 58.9 | 39.9 | 32.3 | > 100 | 63 | 17.4 |  | Cn1cc(NC(=O)c2cccc(NS(=O)(=O)c3ccc(Cl)cc3)c2)cn1 |  |
| 57.3 | 45.3 | 36.8 | 25.6 | 85.8 | 47.2 | 14.5 | 26.1 | COc1ccc(-n2cc(NC(=O)c3ccc(NS(=O)(=O)c4ccccc4)cc3)cn2)cc1 |  |
| 6.05 | 16.2 | 15.7 | 1.69 | 18.9 | 3.12 | 0.58 | 9.57 | Cc1ccc(-n2cc(NC(=O)c3cccc(NS(=O)(=O)c4ccccc4)c3)cn2)cc1 | 93.8 |
| 15.2 | 25.5 | 21.7 | 8.72 | 29.7 | 19.7 | 5.15 | 15.3 | COc1ccc(-n2cc(NC(=O)c3cccc(NS(=O)(=O)c4ccc(Cl)cc4)c3)cn2)cc1 | 89.8 |

The remaining lines, values behind:

| Compound | IC50 [1] [µM] | IC50 [2] [µM] | IC50 [3] [µM] | IC50 [4] [µM] | IC50 [5] [µM] | IC50 [6] [µM] | IC50 [7] [µM] | IC50 [8] [µM] | CC50 at 48 h [9] [µM] |
| --- | --- | --- | --- | --- | --- | --- | --- | --- | --- |
| COc1cccc(-n2cc(NC(=O)c3ccc(NS(=O)(=O)c4ccccc4)cc3)cn2)c1 | 64.2 | 47.5 | 39.5 | 28.4 | > 100 | 66.2 | 16.2 | 24.1 |  |
| COc1ccc(-n2cc(NC(=O)c3ccc(NS(=O)(=O)c4ccc(Cl)cc4)cc3)cn2)cc1 | 19.1 | 26.5 | 26.5 | 15.6 | 61 | 25.2 | 7.16 | 16.2 |  |
| COc1cc2c(Nc3ccc(Br)cc3F)ncnc2cc1OCC1CCN(C)CC1 [VANDETANIB] |  |  |  |  |  |  |  |  | 172 |
| Cc1ccc(-n2cc(NC(=O)c3ccc(NS(=O)(=O)c4ccccc4)cc3)cn2)cc1 | 18.1 | 28.1 | 26 | 10.9 | 54.7 | 27.9 | 6.85 | 18.3 | 107 |
| O=C(Nc1cnn(-c2ccccc2)c1)c1cccc(NS(=O)(=O)c2ccccc2)c1 | 10.1 | 18.2 | 18.6 | 4.32 | 26.8 | 15.3 | 3.26 | 15.4 | 110 |
| COc1cccc(-n2cc(NC(=O)c3cccc(NS(=O)(=O)c4ccc(Cl)cc4)c3)cn2)c1 | 19.6 | 22.2 | 24.4 | 9.43 | 44.4 | 25 | 5.97 | 15.6 | 133 |
